Data reported in patent US8575091B1, “Amylin analogues and pharmaceutical compositions thereof” (Novo Nordisk A/S, priority 2012, dated 2013).
pEC50, pIC50: −log10 of the molar value. Numbered stars: 1 amine (or outer) side, 2 acyl side, 3 side chain; on linkers, the order of the positions; unused ones are H or OH. Bridge positions count the residues as written; N and C are the ends. Side chains are listed from the residue outwards. Peptide text beside a SMILES is read from it. * marks the point of attachment. C20 diacid = O=C(O)CCCCCCCCCCCCCCCCCCC(=O)*; γGlu = O=C(O)[C@H](CCC(=O)[*:2])N[*:1]

Columns and labels:
Wistar rats = test: Assay (XII) single subcutaneous administration, plasma calcium in rats; type: in vivo, rat; settings: for Plasma calcium red (%) 0-12 h: single s.c., maximal reduction 0-12 h, compared to vehicle; for suppression of plasma calcium level relative to vehicle: single subcutaneous, over 24 hours
Experimental: Assay (XII)—Effect from Single Subcutaneous Administration of Analogue on Plasma Calcium in Rats
Male Wistar rats (Taconic Europe, ˜250 g at test date) were acclimatized to handling prior to the study. Rats were divided in groups of five and subcutaneously dosed with test compound at time=0. At time T=−15 min; 1 h, 2 h, 4 h, 7 h, 12 h, and 24 h a blood sample was obtained and heparin stabilized plasma was analysed for total calcium (Cobas, Hitachi). Data are illustrated in graphs as mean±SEM.

human amylin receptor = biological target: T1, human amylin receptor (Homo sapiens, UniProt O60896+P30988); test: Assay (V) binding to the human amylin receptor (SPA, 125I-rat amylin); settings: for pIC50: human amylin receptor membranes, SPA, read-out: hAmylin-R bind IC50
T1 construct: expressed in transfected cells
T1 sequence (P30988 25-474): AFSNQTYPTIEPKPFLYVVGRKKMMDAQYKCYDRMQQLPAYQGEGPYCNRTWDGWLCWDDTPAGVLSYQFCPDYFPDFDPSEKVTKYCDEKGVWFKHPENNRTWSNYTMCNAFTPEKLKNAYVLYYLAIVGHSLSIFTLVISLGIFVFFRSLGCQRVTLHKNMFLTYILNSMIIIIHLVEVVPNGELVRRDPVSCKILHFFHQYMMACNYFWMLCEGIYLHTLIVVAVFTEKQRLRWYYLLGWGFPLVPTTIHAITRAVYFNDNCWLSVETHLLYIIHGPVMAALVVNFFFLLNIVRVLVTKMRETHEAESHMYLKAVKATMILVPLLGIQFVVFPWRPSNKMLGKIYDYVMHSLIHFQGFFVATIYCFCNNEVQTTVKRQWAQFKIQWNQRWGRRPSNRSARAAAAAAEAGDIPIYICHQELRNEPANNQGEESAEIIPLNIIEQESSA
T1 sequence (O60896 24-148 partner): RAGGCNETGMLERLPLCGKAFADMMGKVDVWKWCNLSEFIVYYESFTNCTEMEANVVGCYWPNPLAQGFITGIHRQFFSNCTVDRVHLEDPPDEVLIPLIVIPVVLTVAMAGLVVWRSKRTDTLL
How it was run: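 SPA competition binding on membranes from Amylin 3(a)/CRE-luc cells, 35 ng/μL membranes with 0.05 mg/well beads. Buffer 50 mM Hepes pH 7.4, 1 mM CaCl2, 5 mM MgCl2, 0.1% OA, 0.02% Tween20. IC50 from one-site competition fit as affinity measure.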

Sprague-Dawley rats = test: Assay (XI) single subcutaneous administration, food intake monitored for 48 hours in rats; type: in vivo, rat; settings: single subcutaneous 30 nmol/kg
Experimental: Assay (XI)—Effect from Single Subcutaneous Administration of Analogue on […] in Rats
Male Sprague-Dawley rats (Taconic Europe, ˜250 g at test date) were acclimatized to reversed day light cycle (lights on from 10 PM to 10 AM) and single housing in online food intake monitoring system (Ellegaard MBRose, Denmark) prior to study start. Rats were divided in groups of five and subcutaneously dosed with test compound (30 nmol/kg) and food intake was monitored for 48 hours hereafter. Data are illustrated in graphs as mean±SEM.

[1] = biological target: T2, human calcitonin receptor (Homo sapiens, UniProt P30988); test: Assay (II)a functional assay, human calcitonin receptor (CRE luciferase, BHK cells);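 also: luminescence from a CRE-driven luciferase reporter, read by single photon counting after cells were exposed to test samples for 3 h at 37 °C under 5% CO2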; type: cell-based; settings: read-out: hCTR funct. EC50
T2 construct: expressed in transfected cells
T2 sequence (P30988 25-474): T1 sequence (P30988 25-474)

[2] = biological target: T3, human amylin receptor (amylin 3(a) receptor: human calcitonin receptor + RAMP-3) (Homo sapiens, UniProt O60896+P30988); test: Assay (II)a functional assay, human amylin receptor (CRE luciferase, BHK cells); type: cell-based; settings: for pEC50: functional assay, human amylin receptor, read-out: hAmylin-R funct. EC50
T3 construct: expressed in transfected cells
T3 sequence (P30988 25-474): T1 sequence (P30988 25-474)
T3 sequence (O60896 24-148 partner): T1 sequence (O60896 24-148 partner)

[3] = biological target: T2, human calcitonin receptor; test: Assay (VII) binding to the human calcitonin receptor (SPA, 125I-Calcitonin); settings: read-out: hCTR bind IC50;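 also: cell membranes coupled to SPA beads, competitive displacement read by scintillation counting, IC50 derived from a one-site competition fit as a measure of receptor affinity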
Experimental: Membranes were prepared in the following way; the cells were rinsed with PBS and incubated with Versene for approximately 5 min before harvesting. The cells were flushed with PBS and the cell-suspension was centrifuged for 5 min at 1000 rpm. […] The resulting pellet was resuspended in buffer 2 and protein concentration was measured (BCA protein Assay, Pierce). The homogenate was kept cold during the whole procedure. The membranes were kept at −80° C. until use. Assay was performed in a 384 well Optiplate (PerkinElmer) in a total volume of 40 ul. Membranes were mixed with SPA beads. Final concentration of membranes 35 ng/μL final and Final concentration of SPA beads was 0.05 mg/well. Test-compounds were dissolved in DMSO and further diluted in assay buffer (50 mM Hepes, pH 7.4, 1 mM CaCl2, 5 mM MgCl2, 0.1% OA and 0.02% Tween20). […] Samples were analyzed on TopCounter™ (Packard). The IC50 was calculated using (one site binding competition analysis) GraphPad Prism5 as a measure of receptor affinity.

[4] = Table 6, human functional selectivity (hCTR EC50 / hAmylin-R EC50)
[5] = Table 6a, human functional selectivity (hCTR EC50 / hAmylin-R EC50), at least 5
[6] = Table 6i, hCTR funct. EC50 / hAmylin-R funct. EC50
[7] = Table 6j, hCTR funct. EC50 / hAmylin-R funct. EC50
[8] = Table 6k, hCTR funct. EC50 / hAmylin-R funct. EC50

Row | Compound | Plasma calcium red (%) 0-12 h (Wistar rats; 30 nmol/kg) [%] | suppression of plasma calcium level relative to vehicle (Wistar rats; 30 nmol/kg) | suppression of plasma calcium level relative to vehicle (Wistar rats; 1000 nmol/kg) | Ratio hCT/hAmylin binding (human amylin receptor; Table 7b, human calcitonin receptor binding IC50 divided by human amylin receptor binding IC50) | Ratio hCT/hAmylin binding (human amylin receptor; Table 7c, human calcitonin receptor binding IC50 divided by human amylin receptor binding IC50) | Ratio hCT/hAmylin binding (human amylin receptor; human binding ratio, included for comparison) | food intake monitored over 48 hours versus vehicle (Sprague-Dawley rats) | pEC50 [1] | Ratio hCT/hAmylin funct. [2, 4] | Ratio hCT/hAmylin funct. [2, 5] | Ratio hCT/hAmylin funct. [2, 6] | Ratio hCT/hAmylin funct. [2, 7] | Ratio hCT/hAmylin funct. [2, 8] | pEC50 [2] | pIC50 [3] | Plasma calcium red (%) 0-12 h (Wistar rats; 3 nmol/kg) [%] | suppression of plasma calcium level relative to vehicle (Wistar rats; 3 nmol/kg) | suppression of plasma calcium level relative to vehicle (Wistar rats; 100 and 300 nmol/kg) | pIC50 (human amylin receptor) | suppression of plasma calcium level relative to vehicle (Wistar rats; increasing doses (all doses tested))
1 | CC[C@H](C)[C@H](NC(=O)[C@H](C)NC(=O)CNC(=O)[C@H](Cc1ccccc1)NC(=O)[C@H](CC(N)=O)NC(=O)[C@@H]1CCCN1C(=O)[C@H](CO)NC(=O)[C@H](CO)NC(=O)[C@H](Cc1c[nH]cn1)NC(=O)[C@H](CCCNC(=N)N)NC(=O)[C@H](CC(C)C)NC(=O)[C@H](Cc1ccccc1)NC(=O)[C@H](CCC(=O)O)NC(=O)[C@H](C)NC(=O)[C@H](CC(C)C)NC(=O)[C@H](CCCNC(=N)N)NC(=O)[C@H](CCC(N)=O)NC(=O)[C@@H](NC(=O)[C@H](C)NC(=O)[C@@H]1CSSC[C@H](NC(=O)[C@@H](N)CCCCNC(=O)CC[C@H](NC(=O)CC[C@H](NC(=O)CCCCCCCCCCCCCCCCCCC(=O)O)C(=O)O)C(=O)O)C(=O)N[C@@H](CC(N)=O)C(=O)N[C@@H]([C@@H](C)O)C(=O)N[C@@H](C)C(=O)N[C@@H]([C@@H](C)O)C(=O)N1)[C@@H](C)O)C(=O)N1CCC[C@H]1C(=O)N[C@@H](CO)C(=O)N[C@@H](CO)C(=O)N[C@H](C(=O)N[C@@H](CC(N)=O)C(=O)N[C@H](C(=O)NCC(=O)N[C@@H](CO)C(=O)N[C@@H](CCCNC(=N)N)C(=O)N[C@H](C(=O)N[C@@H](Cc1ccc(O)cc1)C(N)=O)[C@@H](C)O)C(C)C)[C@@H](C)O [Example 89] (H-K([γGlu-γGlu-C20 diacid])CNTATCATQRLAEFLRHSSPNFGAIPSSTNVGSRTY-NH2; disulfide 2-7 (inferred); N-terminus and C-terminus assumed) | 7 | None of the example compounds at 30 nmol/kg trigger a notable suppression of the calcium level | more pronounced suppression of the calcium level | 28.0 | 28.0 | 28.0 | reduce food intake in rats | – | – | – | – | – | – | – | – | – | – | – | – | –
2 | CC[C@H](C)[C@H](NC(=O)[C@H](C)NC(=O)CNC(=O)[C@H](Cc1ccccc1)NC(=O)[C@H](CC(N)=O)NC(=O)[C@@H]1CCCN1C(=O)[C@H](CO)NC(=O)[C@H](CO)NC(=O)[C@H](Cc1c[nH]cn1)NC(=O)[C@H](CCCNC(=N)N)NC(=O)[C@H](CC(C)C)NC(=O)[C@H](Cc1ccccc1)NC(=O)[C@H](CCC(=O)O)NC(=O)[C@H](C)NC(=O)[C@H](CC(C)C)NC(=O)[C@H](CCCNC(=N)N)NC(=O)[C@H](CCC(N)=O)NC(=O)[C@@H](NC(=O)[C@H](C)NC(=O)[C@@H]1CSSC[C@H](NC(=O)[C@@H](N)CCCCNC(=O)CC[C@H](NC(=O)CCCCCCCCCCCCCCCCCCC(=O)O)C(=O)O)C(=O)N[C@@H](CC(N)=O)C(=O)N[C@@H]([C@@H](C)O)C(=O)N[C@@H](C)C(=O)N[C@@H]([C@@H](C)O)C(=O)N1)[C@@H](C)O)C(=O)N1CCC[C@H]1C(=O)N[C@@H](CO)C(=O)N[C@@H](CO)C(=O)N[C@H](C(=O)N[C@@H](CC(N)=O)C(=O)N[C@H](C(=O)NCC(=O)N1CCC[C@H]1C(=O)N[C@@H](CCC(=O)O)C(=O)N[C@H](C(=O)N[C@@H](Cc1ccc(O)cc1)C(N)=O)[C@@H](C)O)C(C)C)[C@@H](C)O [Example 109] (H-K([γGlu-C20 diacid])CNTATCATQRLAEFLRHSSPNFGAIPSSTNVGPETY-NH2; disulfide 2-7) | 27 | minor suppression of the calcium level | – | – | – | – | reduces food intake in rats | 9.08 | 5.2 | 5.2 | 5.2 | 5.2 | 5.2 | 9.79 | 8.73 | 7 | does not trigger a notable suppression of the calcium level | more pronounced suppression of the calcium level | 9.85 | –
3 | CC[C@H](C)[C@H](NC(=O)[C@H](C)NC(=O)CNC(=O)[C@H](Cc1ccccc1)NC(=O)[C@H](CC(N)=O)NC(=O)[C@@H]1CCCN1C(=O)[C@H](CO)NC(=O)[C@H](CO)NC(=O)[C@H](Cc1c[nH]cn1)NC(=O)[C@H](CCCNC(=N)N)NC(=O)[C@H](CC(C)C)NC(=O)[C@H](Cc1ccccc1)NC(=O)[C@H](CC(=O)O)NC(=O)[C@H](C)NC(=O)[C@H](CC(C)C)NC(=O)[C@H](CCCNC(=N)N)NC(=O)[C@H](CCC(N)=O)NC(=O)[C@@H](NC(=O)[C@H](C)NC(=O)[C@@H]1CSSC[C@H](NC(=O)[C@@H](N)CCCCNC(=O)CC[C@H](NC(=O)CC[C@H](NC(=O)CCCCCCCCCCCCCCCCCCC(=O)O)C(=O)O)C(=O)O)C(=O)N[C@@H](CC(N)=O)C(=O)N[C@@H]([C@@H](C)O)C(=O)N[C@@H](C)C(=O)N[C@@H]([C@@H](C)O)C(=O)N1)[C@@H](C)O)C(=O)N1CCC[C@H]1C(=O)N[C@@H](CO)C(=O)N[C@@H](CO)C(=O)N[C@H](C(=O)N[C@@H](CC(N)=O)C(=O)N[C@H](C(=O)NCC(=O)N[C@@H](CO)C(=O)N[C@@H](CCCNC(=N)N)C(=O)N[C@H](C(=O)N[C@@H](Cc1ccc(O)cc1)C(N)=O)[C@@H](C)O)C(C)C)[C@@H](C)O [Example 52, N-ε-1-{(S)-4-carboxy-4-[(S)-4-carboxy-4-(19-carboxynonadecanoylamino)butyrylamino]butyryl}-[Asp14,Arg17,Pro21,Pro27,Arg35]-human amylin] | 12 | – | – | – | – | – | reduces food intake in rats | 7.85 | – | – | – | – | – | 9.47 | 7.25 | – | – | – | 9.16 | None of the doses trigger a notable suppression of the calcium level
4 | CC[C@H](C)[C@H](NC(=O)[C@H](C)NC(=O)CNC(=O)[C@H](Cc1ccccc1)NC(=O)[C@H](CC(N)=O)NC(=O)[C@@H]1CCCN1C(=O)[C@H](CO)NC(=O)[C@H](CO)NC(=O)[C@H](Cc1c[nH]cn1)NC(=O)[C@H](CCCNC(=N)N)NC(=O)[C@H](CC(C)C)NC(=O)[C@H](Cc1ccccc1)NC(=O)[C@H](CCC(=O)O)NC(=O)[C@H](C)NC(=O)[C@H](CC(C)C)NC(=O)[C@H](CCCNC(=N)N)NC(=O)[C@H](CCC(N)=O)NC(=O)[C@@H](NC(=O)[C@H](C)NC(=O)[C@@H]1CSSC[C@H](NC(=O)[C@@H](N)CCCCNC(=O)CC[C@H](NC(=O)CCCCCCCCCCCCCCCCCCC(=O)O)C(=O)O)C(=O)N[C@@H](CC(N)=O)C(=O)N[C@@H]([C@@H](C)O)C(=O)N[C@@H](C)C(=O)N[C@@H]([C@@H](C)O)C(=O)N1)[C@@H](C)O)C(=O)N1CCC[C@H]1C(=O)N[C@@H](CO)C(=O)N[C@@H](CO)C(=O)N[C@H](C(=O)N[C@@H](CC(N)=O)C(=O)N[C@H](C(=O)NCC(=O)N1CCC[C@H]1C(=O)N[C@@H](CCCNC(=N)N)C(=O)N[C@H](C(=O)N[C@@H](Cc1ccc(O)cc1)C(N)=O)[C@@H](C)O)C(C)C)[C@@H](C)O [Example 117] (H-K([γGlu-C20 diacid])CNTATCATQRLAEFLRHSSPNFGAIPSSTNVGPRTY-NH2; disulfide 2-7) | 9 | None of the example compounds at 30 nmol/kg trigger a notable suppression of the calcium level | – | – | – | – | reduces food intake in rats | 8.20 | 17.0 | 17.0 | 17.0 | 17.0 | 17.0 | 9.42 | 8.20 | – | – | – | 9.79 | –
